Measured values: patent US20260248812A1, “METHODS OF TREATING CONGENITAL ADRENAL HYPERPLASIA” (Spruce Biosciences, Inc., priority 2019, published 2026)

Tests used:
adults with classic CAH = assay: Phase 2 clinical study of Compound 3 with glucocorticoid: time matched change of serial hormone profiles (ACTH, 17-OHP, A4); type: in vivo, human; details: non-dexamethasone subjects; for A4 level profile, time matched change from baseline: 6 am to 8 am
Method: Study Compound 3, a Phase 2, open-label, first-in-CAH-patients, proof-of-concept, dose ranging study, evaluated the safety and efficacy of repeated doses of SPR001 in adults with classic CAH. The population (n=24; with 2 subjects completing 2 cohorts) consisted of subjects with classic CAH that is not adequately controlled despite a stable glucocorticoid regimen based on the assessment of a single hormone at study screening, 17-OHP>800 ng/dl, which is 4 times the upper limit of a normal reference range of 17-OHP level. 17-OHP was chosen as the hormone as an inclusion criterion, as at the time, it represented the state-of-art in CAH for assessment of disease severity and adequacy of glucocorticoid therapy. The study comprised 3 cohorts, Cohort A was a 6-week intra-subject dose escalation treatment period with three 2-week treatment periods of 200 mg […] (QD) (only daily), 600 mg QD and 1000 mg QD without washout between treatment periods. Cohorts B and C consisted of 2-week treatment periods of either 100 bis in die (BID) (twice daily) (Cohort C) or 200 mg BID (Cohort B). At baseline, the following hormones were assessed, 17-OHP, ACTH and A4. The same hormones were assessed at the end of each 2-week treatment period.
A clinical study is conducted involving up to 52 weeks treatment of Compound 3 with concurrent daily glucocorticoid therapy for the treatment of adults with classic CAH. After screening using A4 and ACTH level criteria, eligible patients are enrolled into up to 12 weeks of placebo-controlled treatment followed by 40 weeks of open label treatment and a 4-week washout/safety follow-up period.
(§1) As part of the study, pre and pose concentrations of DEX and cortisol were measured. In some embodiments, the biomarker reduction analysis comprises all subjects.
(§2) A pooled baseline (dotted) and 2 lines (solid) representing two dose groups (doses=200 mg and doses >200 mg) using the percentage change from dose group baseline presented as percentage change from the pooled baseline. The figures are divided by disease control group, poor disease control with highly elevated ACTH and A4 and the good disease control group with ACTH and A4 that is near normal or below normal ranges. Each group has elevated 17-OHP.
as §2, with “In both groups, 17-OHP is elevated above its target (1200 ng/dL). The Y-axis is different with the poor disease control” for “Each”, “exceeding 8000 ng/dL in FIG. 3A and the good disease group was near an upper bound of approximately 3000 ng/dL in FIG. 3B.” for “has elevated 17-OHP.”

CYP3A4 pathway = CYP3A4 pathway (Homo sapiens, UniProt P08684); assay: CYP3A4 pathway inhibition (statement); type: in vitro ADME; details: dexamethasone is primarily metabolized through the CYP3A4 pathway
Sequence of CYP3A4 pathway (P08684 whole entry): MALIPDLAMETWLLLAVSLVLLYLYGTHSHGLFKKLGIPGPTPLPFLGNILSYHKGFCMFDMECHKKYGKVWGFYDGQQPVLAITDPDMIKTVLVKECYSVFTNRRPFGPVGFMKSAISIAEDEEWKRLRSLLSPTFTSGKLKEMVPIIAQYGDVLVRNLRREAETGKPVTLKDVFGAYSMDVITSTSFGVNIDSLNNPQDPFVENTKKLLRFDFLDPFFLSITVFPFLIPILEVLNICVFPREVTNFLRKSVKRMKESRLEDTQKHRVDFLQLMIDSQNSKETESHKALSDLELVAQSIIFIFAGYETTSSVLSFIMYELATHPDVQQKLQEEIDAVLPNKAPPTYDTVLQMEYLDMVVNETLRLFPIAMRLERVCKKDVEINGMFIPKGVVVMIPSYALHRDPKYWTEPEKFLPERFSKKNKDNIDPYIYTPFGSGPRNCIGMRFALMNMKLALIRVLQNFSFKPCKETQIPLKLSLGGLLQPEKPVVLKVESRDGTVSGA
Method: as §1

inhibition of the CYP3A4 pathway (CYP3A4 pathway): inhibitor of the CYP3A4 pathway
SMILES: CCC(CC)c1cc(C)nc2c(-c3sc(N4CCOCC4)nc3Cl)c(C)nn12 [Compound 3, 4-(4-chloro-5-(2,5-dimethyl-7-(pentan-3-yl)pyrazolo[1,5-a]pyrimidin-3-yl)thiazol-2-yl)morpholine]
17-OHP level, serial hormone profile, time matched change from baseline (adults with classic CAH; both poor and good disease control groups, 10 pm to 8 am, FIGS. 3A and 3B): reduced the magnitude of the increase in 17-OHP post 3 am | ACTH level, serial hormone profile, time matched change from baseline (adults with classic CAH; good disease control group (ACTH and A4 near or below normal), 10 pm to 8 am, FIG. 2B): generally maintained the serial profile below the ULN | A4 level profile, time matched change from baseline (adults with classic CAH; good disease control group, FIG. 4B): further reduce A4 level compared to the baseline level | ACTH level, serial hormone profile, time matched change from baseline (adults with classic CAH; poor disease control group (highly elevated ACTH and A4), 10 pm to 8 am, doses =200 mg and >200 mg, FIG. 2A): reduced the magnitude of the increase in ACTH post 3 am | A4 level profile, time matched change from baseline (adults with classic CAH; poor disease control group, blended gender based ULN approximately 212 ng/dL, FIG. 4A): improves the A4 profile in subjects toward the blended gender based ULN
